Assay results from patent US8372973B2, “Prokineticin 1 receptor antagonists” (Janssen Pharmaceutica N.V., priority 2005, dated 2013).
Several values for one entry are separate records, joined by “and”; a condition that tells them apart may be missing. Equal entries are not always repeated. Entries after “also recorded” stand apart in the source; their conditions may differ. Where two headings read alike, the source gives them in different places.

Experiments:
[1] = target: T1, GPR73 (prokineticin 1 receptor) (Homo sapiens, UniProt Q8TCW9); assay: PK1 functional assay: Ca2+ mobilization on the FLIPR; format: cell-based; conditions: for inhibition at 10 µM: read-out: Ca^2+ Mobilization % Inh @10 μM; for IC50: HEK 293 GPR73 expressing cells, PK1 ligand preparation at its EC50, read-out: Ca^2+ Mobilization IC50
T1 construct: expressed in transfected cells; host or cells: HEK 293
T1 sequence (Q8TCW9 whole entry, species assumed): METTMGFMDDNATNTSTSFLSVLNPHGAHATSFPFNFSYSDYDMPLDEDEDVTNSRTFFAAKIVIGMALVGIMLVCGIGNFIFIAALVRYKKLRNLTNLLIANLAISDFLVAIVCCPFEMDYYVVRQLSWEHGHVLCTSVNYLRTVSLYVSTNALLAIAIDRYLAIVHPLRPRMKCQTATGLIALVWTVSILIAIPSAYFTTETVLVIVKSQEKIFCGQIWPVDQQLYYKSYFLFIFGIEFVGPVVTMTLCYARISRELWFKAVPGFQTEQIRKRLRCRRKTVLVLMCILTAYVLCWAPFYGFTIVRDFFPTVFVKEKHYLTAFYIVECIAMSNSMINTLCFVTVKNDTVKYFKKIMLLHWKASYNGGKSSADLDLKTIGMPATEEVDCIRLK
Experimental: At a time of 24 h prior to running the assay, in cell culture media (DMEM containing high Glucose and L-glutamine, 10% FBS, 1% Pen/Streptomycin, 1% Sodium Pyruvate, 20 mM HEPES, Zeocin 200 mg/L), […] of 1.3*10^6/ml HEK 293 GPR73 (prokineticin 1 receptor) expressing cells were plated in a 96 well poly-d-lysine coated plate (Costar), and incubated at 37° C. and 5% CO2. On the day in which the assay was run, the media was removed and […] of 5× Calcium Plus Dye (Molecular Devices) which was previously resuspended with 200 mL of assay buffer [HBSS w/Ca^2+ and Mg^2+ w/o phenol red, 20 mM HEPES, 0.1% BSA, 10 mL probenecid (710 mg probenecid in 5 mL of 1N NaOH, to which was then added 5 mL HBSS containing 20 mM HEPES)] was added to each well of the 96-well plate. The plate was incubated at 37° C. and 5% CO2 for 30 min in dark. The plate was removed and allowed to reach RT for 15 min in the dark. The assay was then run on the FLIPR. In Brief: base line read for 1 min, compound added (25 μL) and incubated for 4 min, 15 seconds, PK1 ligand preparation added (25 μL) for a final concentration of a previously determined EC50 and fluorescence was counted for 1 min, 45 seconds. Baseline is described as the amount of relative fluorescence read when buffer alone is added to cells. Baseline was subtracted from all wells. Percent of control was calculated as follows:
(Baseline subtracted well value is divided by baseline subtracted max value)*100. Percent inhibition is 100 minus the percent of control value.
The IC50 is defined as the amount of a given compound required to inhibit 50% of the maximum signal that is generated by the concentration of PK1 preparation used in our assay. IC50 values were calculated using GraphPad Prism.

PK1 receptor = target: T2, PK1 receptor (Rattus norvegicus, UniProt Q8R416); assay: Suppression of PK1-evoked increase in Isc in isolated rat ileum mucosa, Ussing-type chambers; conditions: 1 μM test compound, 15 min; PK1 10 and 100 nM cumulative
T2 construct: The PK1 evoked increase in Isc requires the presence of endogenous PK1 receptors; from tissue; host or cells: isolated rat ileum mucosa
T2 sequence (Q8R416 whole entry): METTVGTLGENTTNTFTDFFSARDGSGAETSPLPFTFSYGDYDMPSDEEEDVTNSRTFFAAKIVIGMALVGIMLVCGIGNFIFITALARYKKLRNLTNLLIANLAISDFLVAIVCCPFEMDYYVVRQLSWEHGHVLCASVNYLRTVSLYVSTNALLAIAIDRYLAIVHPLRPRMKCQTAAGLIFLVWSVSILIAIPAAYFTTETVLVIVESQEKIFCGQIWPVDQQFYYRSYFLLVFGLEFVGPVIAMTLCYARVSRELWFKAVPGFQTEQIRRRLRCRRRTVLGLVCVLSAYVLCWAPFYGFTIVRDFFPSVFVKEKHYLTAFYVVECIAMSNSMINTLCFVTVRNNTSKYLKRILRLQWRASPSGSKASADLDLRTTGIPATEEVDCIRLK
Experimental: Methodology. The basic methodology for Ussing-type ion flux chambers used in these studies was the same as that described in detail above with the following modifications to the experimental protocol. […] The responses to two sequential EFS were used to gauge tissue viability and comparability of the responses of individual tissues from each rat and between rats. Tissue conductance was measured at periodic intervals as changes in the amplitudes of brief short-circuit current responses evoked by application of 1 mV amplitude bi-polar pulses from a pulse generator using Ohm's Law. Three to four tissues from each rat were studied. The tissues from a given animal were grouped and assigned accordingly: one control tissue which received only vehicle followed by two consecutive doses of PK-1 ligand added in a cumulative fashion to the basolateral surface of the tissue; the remaining two to three tissues from the same animal were assigned to be exposed to a given PK-1 receptor antagonist (e.g., 3-4 tissues from 1 rat: Control, Antagonist1, Antagonist2, and/or Antagonist3). Test compound was added to the basolateral tissue side reservoir at a final concentration of 1 μM and allowed a 15 minute incubation period prior to challenge with the PK1 peptide. […]

[2] = test system: pro-secretory effect of carbachol; assay: Selectivity test against carbachol-evoked secretion in rat ileum mucosa, Ussing-type chambers
[3] = test system: Cholera toxin stimulated gut secretion; design: species or system rat
[4] = test system: ileum mucosal tissues from PK1 receptor knock-out mice; assay: PK1 effect on Isc in ileum mucosal tissues from PK1 receptor knock-out mice; conditions: exogenous PK1 peptide

## COc1ccc(Cn2c(NCc3cccnc3)nc(=O)n(Cc3ccc(OC)cc3)c2=O)cc1 [Cpd 40]
[1]; @10 μM compound
  inhibition at 10 µM: 83%
[1]
  IC50: 557 nM

## COc1ccc(Cn2c(NCc3cccnc3N)nc(=O)n(Cc3ccc(OC)cc3)c2=O)cc1 [Cpd 3, 6-[(2-Amino-pyridin-3-ylmethyl)-amino]-1,3-bis-(4-methoxy-benzyl)-1H-[1,3,5]triazine-2,4-dione]
PK1 receptor
  suppression of the PK1 evoked increase in Isc: suppresses; also recorded: significant surmountable antagonism
[2]
  suppression of the pro-secretory effect of carbachol (unrelated secretagogue): without inhibiting
[2]; two ascending cumulative carbachol concentrations, serosal side
  suppression of the pro-secretory effect of carbachol (unrelated secretagogue): without inhibiting; also recorded: failed to suppress
[3]
  suppression of Cholera toxin-evoked stimulation of gut secretion (in words): suppresses
  suppression of the sustained increase in baseline Isc evoked by Cholera toxin: 50-60%

## COc1ccc(Cn2c(=O)nc(NCc3cnc(C)cc3C)n(Cc3ccc(OC(F)F)cc3)c2=O)cc1 [Cpd 96]
[1]; @10 μM compound
  inhibition at 10 µM: 92%

## COc1ccc(Cn2c(=O)nc(NCc3cnc(C)cc3C)n(Cc3ccccc3OC)c2=O)cc1 [Cpd 106]
[1]; @10 μM compound, 10 µM
  Ca^2+ Mobilization % Inh @10 μM: 101%
[1]; @10 μM compound
  inhibition at 10 µM: 99%
[1]
  IC50: 25 nM and 74 nM

## COc1ccccc1Cn1c(=O)nc(NCc2cnc(C)cc2C)n(Cc2ccc(OC(F)F)cc2)c1=O [Cpd 193]
[1]; @10 μM compound
  inhibition at 10 µM: 39%
[1]
  IC50: > 10000 nM

B1: PK1: Recombinant human prokineticin-1 from HEK 293 cells, FLAG epitope cleaved; mixture of full-length ligand and four C-terminal residue truncated product (protein)
chain: AVITGACERDVQCGAGTCCAISLWLRGLRMCTPLGREGEECHPGSHKVPFFRKRKHHTCPCLPNLLCSRFPDGRYRCSMDLKNINF
modifications: mixture with C-terminal truncated product; Recombinant N-terminal FLAG-tagged human prokineticin-1 after enterokinase cleavage of Flag-tag
[4]
  change in Isc compared to wild-type littermates: failed to elicit a significant change
